The values below come from patent US20050080142A1 (priority 2003, published 2005).

Format in all cases: cell-based
In experiment [1] the test system is Tetrahymena (Trophozoite).
For experiment [2], the system named is Acanthamoeba (Trophozoite).
Experiment [3] deals with Acanthamoeba (Cyst).

Consider `N=C(N)N` [Guanidine], for which, in experiment [1], the “Minimal Lethal Concentration, Tetrahymena (Trophozoite)” value is 400 µg/mL. Moreover, the “Minimal Lethal Concentration, Acanthamoeba (Trophozoite)” value in experiment [2] was determined as 500 µg/mL. Further, the “Minimal Lethal Concentration, Acanthamoeba (Cyst)” value in experiment [3] amounted to 500 µg/mL.

For `[H]/N=C(\N/C(=N/[H])NCCCCCCNC(=N)NC(=N)Nc1ccc(Cl)cc1)Nc1ccc(Cl)cc1` [Chlorhexidine], in experiment [1], the “Minimal Lethal Concentration, Tetrahymena (Trophozoite)” value came to 15 µg/mL. Besides, the “Minimal Lethal Concentration, Acanthamoeba (Trophozoite)” value in experiment [2] turned out to be 10 µg/mL. In addition, the “Minimal Lethal Concentration, Acanthamoeba (Cyst)” value in experiment [3] is 50 µg/mL.

For `CCCCCCCCCCCCNC(=N)N` [Dodecylguanidine], the “Minimal Lethal Concentration, Tetrahymena (Trophozoite)” value in experiment [1] worked out at 10 µg/mL. Besides, the “Minimal Lethal Concentration, Acanthamoeba (Trophozoite)” value in experiment [2] amounted to 25 µg/mL. Besides, the “Minimal Lethal Concentration, Acanthamoeba (Cyst)” value in experiment [3] was 40 µg/mL.
